Measurements published in the supplement of paper PMC10307832.

Assays:
Test in all cases: relative viability (nuclei count vs DMSO), 5 days (fraction); higher = more cells survive
[1] = compound: CC(C)C[C@H](NC(=O)[C@H](CCc1ccccc1)NC(=O)CN1CCOCC1)C(=O)N[C@@H](Cc1ccccc1)C(=O)N[C@@H](CC(C)C)C(=O)[C@@]1(C)CO1 [Carfilzomib] + COc1cccc2cc(-c3nc([C@H]4CC[C@H](C(=O)O)CC4)n4ncnc(N)c34)[nH]c12 [OSI-027] (partner 0.5 µM)
Procedure, shortened: (§1)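 After 5 days of treatment, lung cancer cells in 1536-well plates were fixed and stained in a single step (final 0.05% Triton X-100, 1% formaldehyde, 1 ug/ml Hoechst) and their nuclei counted on 4× images. Treatment had been applied by pin tool the day after seeding as one drug alone or as a fixed anchor-drug dose with five library-drug doses (not always all listed) in √10 steps. Relative viability is the nuclei count of treated wells divided by that of vehicle wells, and values are medians of duplicate plates.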

[2] = compound: C[C@@H](Oc1cc(-c2cnn(C3CCNCC3)c2)cnc1N)c1c(Cl)ccc(F)c1Cl [Crizotinib] + COc1cc2c(Oc3ccc(NC(=O)C4(C(=O)Nc5ccc(F)cc5)CC4)cc3F)ccnc2cc1OCCCN1CCOCC1 [Foretinib] (partner 0.25 µM)
Procedure, shortened: as §1

[3] = compound: O=C(c1cc(Cc2n[nH]c(=O)c3ccccc23)ccc1F)N1CCN(C(=O)C2CC2)CC1 [Olaparib] + Cc1nc(NC(=O)N2CCC[C@H]2C(N)=O)sc1-c1ccnc(C(C)(C)C(F)(F)F)c1 [Alpelisib] (partner 2 µM)
Procedure, shortened: as §1

[4] = compound: O=C(c1cc(Cc2n[nH]c(=O)c3ccccc23)ccc1F)N1CCN(C(=O)C2CC2)CC1 [Olaparib] + Nc1ncn([C@H]2C[C@H](O)[C@@H](CO)O2)c(=O)n1 [Decitabine] (partner 2 µM)
Procedure, shortened: as §1

| Cell Line | relative viability ([1]; first compound 0.001 µM) | relative viability ([1]; first compound 0.003162 µM) | relative viability ([1]; first compound 0.01 µM) | relative viability ([1]; first compound 0.03162 µM) | relative viability ([1]; first compound 0.1 µM) | relative viability ([2]; first compound 0.01 µM) | relative viability ([2]; first compound 0.03162 µM) | relative viability ([2]; first compound 0.1 µM) | relative viability ([2]; first compound 0.3162 µM) | relative viability ([2]; first compound 1 µM) | relative viability ([3]; first compound 0.08 µM) | relative viability ([3]; first compound 0.253 µM) | relative viability ([3]; first compound 2.53 µM) | relative viability ([3]; first compound 8 µM) | relative viability ([4]; first compound 0.08 µM) | relative viability ([4]; first compound 0.253 µM) | relative viability ([4]; first compound 2.53 µM) | relative viability ([4]; first compound 8 µM) |
| --- | --- | --- | --- | --- | --- | --- | --- | --- | --- | --- | --- | --- | --- | --- | --- | --- | --- | --- |
| HCC-827 | 0.796 | 0.829 | 0.872 | 0.746 | 0.511 | 0.959 | 0.967 | 0.937 | 0.971 | 1.05 | 1.02 | 0.934 | 0.828 | 0.876 | 0.306 | 0.266 | 0.291 | 0.231 |
| HOP-62 | 0.892 | 0.899 | 0.575 | 0.317 | 0.083 | 1.09 | 1.09 | 1.07 | 1.07 | 1.17 | 1.25 | 0.774 | 0.754 | 0.782 | 0.18 | 0.17 | 0.234 | 0.178 |
| IA-LM |  |  |  |  |  | 1.07 | 1.05 | 1.18 | 1.21 | 1.1 | 0.929 | 0.738 | 0.76 | 0.509 |  |  |  |  |
| LC-2-ad | 0.83 | 1.02 | 0.901 | 0.633 | 0.207 | 0.839 | 0.994 |  | 0.884 | 0.877 | 0.893 | 0.746 | 0.863 | 0.695 | 0.618 | 0.623 | 0.557 | 0.509 |
| LCLC-97TM1 | 0.459 | 0.512 | 0.533 | 0.298 | 0.246 | 0.83 |  |  | 0.959 | 0.801 | 0.256 | 0.219 | 0.271 | 0.19 | 0.193 | 0.143 | 0.165 | 0.178 |
| LCLC-103H | 0.462 | 0.463 | 0.541 | 0.483 | 0.277 | 0.75 | 0.732 | 0.727 | 0.865 | 0.711 | 1 | 0.928 | 1.09 | 0.923 | 0.626 | 0.727 | 0.674 | 0.626 |
| LK-2 | 0.223 | 0.201 | 0.166 | 0.18 | 0.181 | 1.19 | 1.42 | 1.2 |  | 1.27 | 1.07 | 1.03 | 1.25 | 0.945 | 0.258 | 0.254 | 0.271 | 0.184 |
| LOU-NH91 | 0.77 | 0.801 | 0.711 | 0.259 | 0.322 | 0.917 | 0.949 | 0.995 | 0.921 | 0.98 | 0.783 | 0.758 | 0.745 | 0.647 | 0.853 | 0.774 | 0.783 | 0.769 |
| LU99A | 0.293 | 0.309 | 0.317 | 0.275 | 0.192 | 0.74 | 0.781 | 0.812 | 0.788 | 0.766 | 0.608 | 0.487 | 0.471 | 0.422 | 0.933 | 0.753 | 0.601 | 0.566 |
